# Data: a melting point compilation (Tetko et al.; mined from patent text by program, amines drawn as free bases though some values may be those of a salt)
row,melting point,SMILES
1,120 °C,O=C(O)CN(Cc1cccc(Cn2cc(C3c4ccccc4C=Cc4ccccc43)c(=S)[nH]c2=O)c1)C(=O)OCc1ccccc1
2,44 to 47 °C,CCCCNc1nc(N)nc2c1ncn2C1CC(N=[N+]=[N-])C(CO)O1 (centres undefined)
3,206 °C,NC(=O)c1cc(I)cc(I)c1O
4,86 to 87 °C,CN(C)CCCCC(N)=O
5,75.5 to 79.5 °C,COc1ccc(C=O)cc1OC1CC2CCC1C2 (centres undefined)
6,97.6 to 98.5 °C,O=C(CCCCC1CCSS1)N1CCN(c2ccc([N+](=O)[O-])cc2)CC1 (centres undefined)
7,145 to 146 °C,COc1cc(Nc2cc(C(=O)O)c(C(=O)O)cc2Nc2ccccc2)cc(OC)c1OC
8,128 to 129 °C,C=CC(=O)OCCOc1ccc(-c2nc(-c3ccc(C)cc3C)nc(-c3ccc(C)cc3C)n2)c(O)c1
9,100 to 103 °C,CC1(O)OC(=O)c2ccc(Oc3ccc(C(F)(F)F)cc3Cl)cc21 (centres undefined)
10,91 to 93 °C,COC1=C(OC)C(=O)C2=C(CCC(CCOc3ccc(F)cc3)CC2)C1=O
11,232 to 234 °C,O=C1c2ccccc2C(=O)N1CC(=O)N1c2ccccc2N(Cc2ccccc2)C[C@@H]2CCC[C@H]21 (relative stereo)
12,92 °C,O=C(O)c1ccc(OCCNC(=O)C2Cc3ccccc3N2S(=O)(=O)c2ccc(-c3ccc(F)cc3F)cc2)cc1 (centres undefined)
13,143 °C,Fc1cccc(Nc2nc(Cl)nc(Cl)n2)c1
14,198 to 201 °C,CC(NC(=O)C1=C(C(=O)Nc2cc(OC3CCCC3)c(Cl)cc2F)CCCC1)c1cccc2ccccc12 (centres undefined)
15,67 to 70 °C,COC(=O)Cc1cccc(Cc2ccccc2C(=O)O)c1
16,105 °C,CCCCCCCCCCCCCCCCCCNC(=O)c1ccc(O)cc1
17,118 to 122 °C,CSc1ccc(C2=C(c3ccc(F)cc3)C(=O)OC2)c(F)c1
18,148 to 150 °C,CC(C)CCN1C(=O)C(N)C(=O)Nc2ccccc21 (centres undefined)
19,226 to 228 °C,CCCCc1nc2c(N)nc3ccccc3c2n1CCS(C)(=O)=O
20,148 to 150 °C,CCCCCCOc1ccc2c(c1)c(CC(=O)O)c(C)n2Cc1ccc(Cl)cc1
21,169 to 171 °C,COC(=O)/C=C/Cn1c(=O)c2cc(C(=O)NCc3ccc(OC)cc3)sc2n(C)c1=O
22,240 to 247 °C,O=c1cc(N2CCOCC2)oc2c(O)cccc12
23,173 to 174 °C,CS(=O)(=O)c1ccc(-c2cc3c(cc2-c2ccc(F)cc2)OCO3)cc1
24,168 to 170 °C,Cc1cc2c3c(c1)c1c(n3CCNC2)CCC1
25,166 °C,COc1ccccc1N1CCN(CCCNC(=O)c2cccc3c(=O)c(C)c(C4CCC(C)CC4)oc23)CC1 (centres undefined)

row,melting point,SMILES
1,105 to 108 °C,CC(=O)OC1CSC(Oc2cncc(-c3ccnc(Cl)c3)c2)C(OC(C)=O)C1OC(C)=O (centres undefined)
2,40 to 43 °C,COC(=O)c1cscc1O
3,130 to 135 °C,O=C(c1ccc(F)cc1)N1CCC[C@H](c2nc(-c3ccc[nH]3)no2)C1
4,75 to 77 °C,COC(=O)Nc1ccc(C(=O)N(C)C)c(S(N)(=O)=O)c1
5,123 to 126 °C,O=Cc1scc2c1-c1cccc3cccc-2c13
6,92.6 to 99 °C,COc1nc2cc(Cl)c(Cl)cc2nc1N1CCN(C)CC1
7,52 °C,CCCc1ncc(C=CC=CC(=O)OCC)s1
8,193 to 194 °C,N#Cc1ccc(N2CCOCC2)c(NC(N)=S)c1
9,189 to 191 °C,Fc1ccc(-c2ccn(C3CCCNC3)c2-c2ccncc2)cc1 (centres undefined)
10,177 to 179 °C,COc1ccc2nc(Cl)nc(Nc3ccccc3)c2c1
11,115 to 120 °C,COc1ccccc1NC(=O)Nc1nc(Nc2ccccc2-c2ccccc2)nc(N(CCC(=O)O)Cc2cccs2)n1
12,102 to 103 °C,O=C(c1ccc(Cl)cc1)c1cc(C2(Nc3ccccc3)OCCO2)ccn1
13,75 to 77 °C,COC(=O)C[C@H](O)CC(=O)CCc1c(-c2ccc(F)cc2)c(-c2ccccc2)c(C(=O)Nc2ccccc2)n1C(C)C
14,136 to 138 °C,Oc1ccc(Cl)nc1Cl
15,> 225 °C,CSc1sc2[nH]c(=O)c(=O)[nH]c2c1C#N
16,160 to 162 °C,COC(=O)c1cc(C[C@@H]2COc3ccc(OCc4nc5cc(F)ccc5s4)cc3[C@@H]2O)ccc1OC (relative stereo)
17,95.7 to 104 °C,CS(=O)(=O)c1ccc(-n2nc(CNC(=O)Nc3ccccc3)cc2-c2ccccc2)cc1
18,225 to 228 °C,CCNCC1CCN(c2c(F)cc3c(=O)c(C(=O)O)cn(C4CC4C)c3c2F)C1 (centres undefined)
19,138 °C,CCOC(=O)C=Cc1ccc(NC(=O)CC)cc1
20,100 °C,Nc1nc2ccc(C(F)(F)C(F)(F)F)cc2s1
21,188 to 190 °C,CC(C)(C)NC(=O)CC(Cc1cccc2ccccc12)C(=O)O (centres undefined)
22,94 to 95 °C,CCCc1sc(N)c(C(=O)c2ccc(Cl)cc2)c1C
23,150 to 151 °C,Oc1cccc(-c2nn(C3CCCC3)c3c(Cl)cccc23)c1F
24,143 °C,CCc1cc(N(C)Cc2ccc3oc(-c4ccccc4C#N)cc3c2)n2nccc2n1
25,> 250 °C,N#Cc1ccc(-c2nc(C(=O)Nc3nccs3)c(-c3ccc(F)cc3)[nH]2)cc1

row,melting point,SMILES
1,253 to 256 °C,N#Cc1c(C(N)=O)c2n(c1C1CC1)CCN(S(=O)(=O)c1ccc(C(F)(F)F)cc1)C2
2,105 to 106 °C,COc1ccc(C(=O)CNc2ccccc2)cc1
3,92 to 94 °C,C[C@@H](Cc1ccc(O)cc1)NS(=O)(=O)c1ccccc1
4,151 to 153 °C,Nc1ccc(N2CCOC2=O)c(Cl)c1
5,146 to 147 °C,O=C(c1ccc(OCCN2CCCC2)cc1)c1c(-c2ccc(O)cc2)sc2cc(O)ccc12
6,135 to 137 °C,CCCc1cc(=O)oc2cc(O)ccc12
7,226 to 228 °C,CC1COCc2nc3c(N)nc4ccc(OCC(=O)N5CCOCC5)cc4c3n21 (centres undefined)
8,174 to 175 °C,N#Cc1c(F)cc2c(c1Cl)N1CCC[C@@H](NC(=O)C(F)(F)F)[C@@H]1c1ccc(F)cc1O2
9,218 to 220 °C,COc1ccc(-c2c(Cl)c(CN3C(=O)CCC3=O)nc3sc4c(c23)CCC(O)C4)cc1 (centres undefined)
10,174 °C,COC[C@H]1CN(c2ccc([C@H]3CC[C@H](C#N)CC3)cc2)C(=O)O1
11,160 to 161 °C,FC(F)(F)c1ccc(-n2ccc3cnccc32)c(Cl)c1
12,158 to 159 °C,CC1=C(O)C(=O)C(C)(C(O)Cc2ccccc2)O1 (centres undefined)
13,146 to 148 °C,O=C(O)c1cc(F)ccc1Sc1ccccc1
14,90 to 95 °C,COc1ccc2c(c1)CC(NNc1ncnc3c1ncn3C1OC(CO)C(O)C1O)CO2 (centres undefined)
15,180 °C,NC(=O)c1nccn1C1Sc2ccccc2C1=O (centres undefined)
16,300 to 320 °C,Cc1c(Cc2ccc(Cl)cc2)sc2nc(N)[nH]c(=O)c12
17,139 to 140 °C,CC(C)(C)OC(=O)N1Cc2c(Br)sc(-c3ccccc3)c2C1
18,259 to 261 °C,N#Cc1cnc2c(oc3ccccc32)c1Nc1ccc(Cl)cc1F
19,106 to 108 °C,Cn1nnnc1SCC1NCCc2cc(OCc3ccccc3)c(OCc3ccccc3)cc21 (centres undefined)
20,217 to 221 °C,CNC(=O)c1ccsc1Nc1nc(Nc2ccc3c(c2)CCN(CCOC)CC3)ncc1Cl
21,89 °C,COC1(c2ccccc2)C=CC(=O)C=C1
22,96 to 98 °C,Cc1cc(Oc2ccc([N+](=O)[O-])c(C(F)(F)F)c2)n[nH]1
23,152 to 153 °C,CSCc1cccc(-c2nc(=O)c3ccccc3s2)n1
24,79.5 to 81 °C,CCOC(=O)C(CCc1ccc2c(c1)OCO2)(Cc1cc(OC)c(OC)c(OC)c1)C(=O)OCC
25,127 to 129 °C,O=C(c1ccc(-n2ccc(C(F)(F)F)n2)cc1C(F)(F)F)N1Cc2cccnc2Nc2ccccc21

row,melting point,SMILES
1,112 to 115 °C,COc1cc(CC(=O)NCCOc2ccc(C(=O)O)cc2[N+](=O)[O-])ccc1N(C(N)=O)c1ccccc1C
2,129 to 140 °C,CC(=O)NC1(c2ccc(CN3CCN(c4ccccc4)CC3)cc2)CC1
3,66 to 68 °C,COC1CC(C)(C)Cc2c1c(C)nn2-c1ccccn1 (centres undefined)
4,153 to 154 °C,Cc1c(C)c2c(c(C)c1Br)C(c1ccc(-c3ccccc3)cc1)CO2 (centres undefined)
5,120 °C,O=C(c1ccc([N+](=O)[O-])cc1)N1CCC(OCc2ccc(F)cc2)CC1
6,82 to 84 °C,Nc1cc(Oc2ccc(Oc3cc(N)cc(C(F)(F)F)c3)c(C(F)(F)F)c2)cc(C(F)(F)F)c1
7,80 to 82 °C,CC(C)(C)OC(=O)NCCOc1ccc(OCC2(C)OCCO2)cc1
8,68 to 71 °C,CCCc1c[nH]c2cc(CO)ccc12
9,160 to 165 °C,Cc1c(C(=O)O)cccc1S(=O)(=O)CCO
10,186 to 188 °C,CCc1cccc(CC)c1C(=O)Nc1cccc2c1CCN(C)C2
11,198 to 199 °C,Cc1ccc(C(=O)N[C@H](Cc2ccc(C(F)(F)F)cc2)[C@@H](O)c2ccc(F)cc2)c2ccccc12 (racemic)
12,104 to 107 °C,CCOC(=O)C(=CNc1nonc1C)C(=O)c1cc(F)c(F)cc1F
13,50 °C,C=C(CC(N)C(=O)OCC)CC(NC=O)(C(=O)OCC)C(=O)OCC (centres undefined)
14,110 to 112 °C,CC(=C[N+](=O)[O-])c1ccccc1O
15,110 to 112 °C,COc1cc(C(=O)c2c[nH]c(-c3cn(S(=O)(=O)c4ccccc4)c4ccccc34)n2)cc(OC)c1OC
16,234 to 237 °C,COc1cccc(/C=C/c2nc3c(c(=O)n(C)c(=O)n3C)n2C)c1OC
17,134 to 136 °C,O=C(N1CC2CCC(C1)O2)C12CC3CC(CC(C3)C1)C2
18,41.8 to 44.4 °C,CN(C)C(=O)[C@@H]1CS[C@@H](CS)C1
19,170 to 173 °C,Cc1ccc(S(=O)(=O)N2CCC[C@H]2C(=O)N2c3ccc(Cl)c(Cl)c3C[C@@H]2C)cc1
20,199 °C,CCOC(=O)C1=C(C)NN=C(C(=O)OC)C1c1ccccc1C#N (centres undefined)
21,189 to 191 °C,CN(Cc1ccc2cc(NS(C)(=O)=O)ccc2n1)C1Cc2ccc(NS(C)(=O)=O)cc2C1 (centres undefined)
22,180 to 182 °C,Cc1ncc2c(c1-c1nnn[nH]1)COc1ccccc1C2=O
23,258 to 261 °C,CC12CCC3c4ccc(C(=O)O)cc4CCC3C1CCC2C(=O)c1cc(F)cc(F)c1 (centres undefined)

row,SMILES,melting point
1,Cc1nc2cc(C(=O)NC3CC3)c(NC(=O)c3cc(C(F)(F)F)nn3-c3ncccc3Cl)c(Cl)c2n1C,233 to 235 °C
